Measurements taken from patent US12383500B2, “Nanoliposome compositions and methods of using the same” (United States Government as represented by the Department …, priority 2018, dated 2025).

Columns and labels:
human umbilical vein ECs [1] = test: Endothelial cell immune activation (gene and protein expression of IL-8, IL-6, ICAM-1, PAI-1); format: cell-based
Procedure: (§1) Endothelial cell immune activation. Primary culture human umbilical vein ECs (passages 4-8, Lonza, Walkersville MD) were seeded into 6-well plates and grown to full confluence. Human umbilical vein ECs have been extensively used to study vascular cell behavior in neurodegenerative disease studies such as AD and VaD as they show similarity in properties as brain ECs, including Aβ metabolism^23, 24, expression of tight junction proteins^25 and metabolic interactions with neural cells^26. ECs were exposed to 20 hours of vehicle or medin (5 μM, dose chosen as this was the mean medin concentration found in human vascular tissue) without or with NLGM1 (300 μM). Additional replicates were also treated with NLGM1 (300 μM) plus transcription factor nuclear factor erythroid 2-related factor 2 (Nrf2) inhibitor brusatol (1 μM). EC immune activation was assessed using gene and protein expressions of inflammation-related cytokines/chemokines interleukin (IL)-8, IL-6, intercellular adhesion molecule (ICAM)-1) and plasminogen activator inhibitor (PAI)-1 (primers from IDT DNA Technologies, Coralville IL)^6, 16. Following lysis, RNA was extracted and converted to cDNA using Aurum Total RNA Mini Kit and iScript cDNA synthesis kit (Bio-Rad Laboratories, Coralville IA) with β-actin as reference normalization gene normalization. […] The conditioned cell media from treated ECs were analyzed for IL-8 and IL-6 protein by enzyme linked immunosorbent assay (ELISA) using DuoSet kit (R&D Systems, Minneapolis MN). ICAM-1 protein was measured from whole cell lysate using ICAM-1 ELISA kit (R&D Systems). PAI-1 and phosphorylated NFκB (phospho-NFκB p65, Ser536, 93H1) proteins were measured using Western blot (1:500, Cell Signaling Technology, Danvers MA).

[2] = test system: human adipose and leptomeningeal arterioles; test: Endothelial function of human arterioles exposed to medin; details: medin 1 μM; Aβ42 0.5 μM
human umbilical vein ECs [3] = format: cell-based; details: medin + NLGM1 + brusatol (1 μM)
human umbilical vein ECs [4] = test: Endothelial cell oxidative stress (superoxide, dihydroethidium fluorescence); format: cell-based
Nrf2 = test: Nuclear Nrf2, HO-1 and NQO1 protein in ECs, Western blot; format: cell-based, human
Procedure: Activated Nrf-2 protein was measured by separating the nuclear from cytosolic components using NE-PER Nuclear and Cytoplasmic Extraction kit (Thermo Scientific, Rockford IL) and using anti-Nrf2 primary antibody (1:500, Cell Signaling) on nuclear proteins using Western blot with tubulin as loading control. Heme oxygenase (HO)-1 and NAD(P)H Quinone dehydrogenase 1 (NQO1) proteins were measured from whole cell lysates using anti-HO-1 (1:1000, Cell Signaling Technology) and anti-NQO1 (1:1000, Cell Signaling) primary antibodies.

[5] = test system: adipose arterioles exposed to amyloid LC proteins; details: LC from AL light chain amyloidosis patients; cited from earlier work
[6] = test system: adipose arterioles exposed to amyloid LC proteins; test: Endothelial function (max response to acetylcholine) of adipose arterioles exposed to amyloid LC proteins; design: species or system human; details: NLs conjugated with clusterin (300 ng/mL), control 91.6±2%
Procedure: Attempts to formulate NLs (cholesterol and phosphatidylcholine) that are conjugated with clusterin (300 ng/mL), both non-covalently as well as covalently through PEGylation, was successful.

NFκB = NFκB activation (phosphorylated NFκB) in ECs, Western blot; format: cell-based, human; details: post-exposure to medin
Procedure: as §1

[7] = test system: Human primary astrocytes with human umbilical vein ECs; test: 3D chip astrocyte and endothelial cell coculture IL-8; format: cell-based; details: medin treated chips with ECs compared to medin treated chips without ECs; 20 hours
Source text: Microfluidic chip fabrication and 3D chip astrocyte and endothelial cell coculture. The microfluidic platform was fabricated in polydimethylsiloxane (PDMS) using standard SU-8 photolithography and replica molding technique, consisting of two side channels for seeding of endothelial cells (ECs) and a central region for astrocyte culture. The dimensions of the side channels' (length, width and height, are 4 mm, 250 μm and 200 μm respectively. The width of the 3D central region is 2 mm Elliptical micro-posts were localized within the central tissue region (500 um width, 100 um height) with specific micro-post spacing to optimize alignment of the astrocytes, while maintaining cellular connectivity and paracrine signaling. Creation of the master silicon wafer through photolithography was executed through spin-coating of SU-8 on a wafer to a height of 200 μm. The wafer was soft-baked, then exposed to UV through a transparent photomask with the chip design. After post-baking, the developed wafer was used as the substrate for soft lithography with PDMS replica molding. A PDMS base: curing agent ratio of 10:1 was used. Then, the PDMS channels were bonded to glass slides through oxygen plasma. […]
Human umbilical vein ECs were seeded into the side channels (2×10^6 cells/mL in EC media) overnight. […] Conditioned media IL-8 were measured using ELISA.

Human primary astrocytes = test: Astrocyte monoculture IL-8 production; format: cell-based; details: astrocytes exposed 20 hours to conditioned media from medin (5 μM)-treated ECs
Procedure: Astrocyte monoculture. Human primary astrocytes (passage 3, Gibco, Madison WI) were seeded in gelatin matrix (4×10^4 cells/cm^2) coated plates, allowed to attach overnight and exposed for 20 hours to vehicle, medin (5 μM), conditioned media from vehicle-treated ECs (10% vol/vol exchange) or conditioned media from medin (5 μM)-treated ECs. Conditioned media IL-8 were measured by ELISA.

[8] = ECs 20 hours, medin 5 μM without or with co-treatment
[9] = medin + NLGM1 + brusatol (1 μM)
[10] = ECs 20 hours, medin 5 μM without or with co-treatment, ELISA of conditioned media

With `[O-][S+](c1ccccc1)c1ccc2nnnn2n1` (stereo not shown) [RO106-9920, reference compound] the “EC ICAM-1 gene expression” value (human umbilical vein ECs [1]; [8]) was “abolished”, the “EC IL-6 gene expression” value (human umbilical vein ECs [1]; [8]) was “abolished” and the “EC IL-8 gene expression” value (human umbilical vein ECs [1]; [8]) was “abolished”. The “EC PAI-1 gene expression” value (human umbilical vein ECs [1]; [8]) was “abolished”.

In the case of Aβ42: beta amyloid peptide, the “endothelial and smooth muscle dysfunction compared to control response” value [2] was “caused endothelial, but not smooth muscle dysfunction”.

In the case of brusatol, the “protective effect of NLGM1 in terms of cell viability” value (human umbilical vein ECs [3]) was “reversed”, the “protective effect of NLGM1 on medin-induced superoxide production” value (human umbilical vein ECs [4]; [9]) was “abolished” and the “increase in HO-1 by NLGM1 co-treatment with medin” value (Nrf2; [9]) was “abolished”. For the same molecule, the “increase in NQO1 by NLGM1 co-treatment with medin” value (Nrf2; [9]) was “abolished” and the “protective effect of NLGM1 against medin-induced EC immune activation” value (human umbilical vein ECs [1]; medin + NLGM1 + brusatol (1 μM), FIG. 8H-K) was “did not abolish”.

For “free clusterin: 80-kDa chaperone glycoprotein; sCLU isoform, commercial human recombinant clusterin protein”, the “endothelial dysfunction in human arterioles exposed to amyloidogenic light chain (LC) proteins” value [5] is given as “reversed” and the “max response to acetylcholine” value [6] is given as 86.4±3.9%.

For “medin: recombinant 50-amino acid amyloid peptide, cleavage product of milk fat globule-EGF factor 8 protein”, the “NFκB activation (phosphorylated NFκB) in ECs, peak” value (NFκB) was 1 h, the “NFκB activation (phosphorylated NFκB) in ECs, persistence” value (NFκB) was 20 h and the “NFκB activation (phosphorylated NFκB) in ECs, start” value (NFκB) was 15 min. For the same molecule, the “astrocyte media IL-8” value [7] was “significantly higher”, the EC superoxide production (human umbilical vein ECs [4]; ECs 20 hours, medin without or with NLGM1) was “increased” and the “nuclear Nrf2 (Nrf2 activation)” value (Nrf2; ECs treated with the substance alone) was “no accompanying Nrf2 activation”. The “EC ICAM-1 gene expression” value (human umbilical vein ECs [1]; [8]) was “increased”, the “EC IL-6 gene expression” value (human umbilical vein ECs [1]; [8]) was “increased” and the “EC IL-8 gene expression” value (human umbilical vein ECs [1]; [8]) was “increased”. For the same molecule, the “EC PAI-1 gene expression” value (human umbilical vein ECs [1]; [8]) was “increased”, the “EC IL-6 protein expression” value (human umbilical vein ECs [1]; [10]) was “increased” and the “EC IL-8 protein expression” value (human umbilical vein ECs [1]; [10]) was “increased”. For the same molecule, the “EC ICAM-1 protein expression” value (human umbilical vein ECs [1]; ECs 20 hours, medin 5 μM without or with co-treatment, ELISA of whole cell lysate) was “increased”, the “EC PAI-1 protein expression” value (human umbilical vein ECs [1]; ECs 20 hours, medin 5 μM without or with co-treatment, Western blot) was “increased” and the “astrocyte IL-8 production” value (Human primary astrocytes) was “significant increase”. For the same molecule, the “endothelial and smooth muscle dysfunction compared to control response” value [2] was “caused endothelial, but not smooth muscle dysfunction”.
